Laboratory results: ChEMBL document CHEMBL1201862, “PubChem BioAssay data set” (2004)
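Step 1: Grow cells in 96-well plates. Step 2: Expose to compound for 48 hours at 5 concentrations. Step 3: Interpolate endpoints linearly; if unreached, use highest concentration. Abbreviation: GI50, concentration required for 50% inhibition of growth.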 Activity calls are given as the source filed them. Cut-off read from the data, not from the text of the source: active = GI50 up to about 1.1 µM and inactive = higher.

Columns and labels:
Assay in all cases: growth of human tumour cells (NCI), 48 h
786-0 = system: 786-0
A498 = system: A498
A549 = system: A549
BT-549 = system: BT-549
CAKI-1 = system: CAKI-1
CCRF-CEM = system: CCRF-CEM
COLO 205 = system: COLO 205
DU-145 = system: DU-145
EKVX = system: EKVX
HCC 2998 = system: HCC 2998
HCT-116 = system: HCT-116
HCT-15 = system: HCT-15
HL-60 = system: HL-60
HOP-62 = system: HOP-62
HOP-92 = system: HOP-92
HT-29 = system: HT-29
Hs-578T = system: Hs-578T
IGROV-1 = system: IGROV-1
K562 = system: K562
KM12 = system: KM12
LOX IMVI = system: LOX IMVI
M14 = system: M14
MCF7 = system: MCF7
MDA-MB-231 = system: MDA-MB-231
MDA-MB-435 = system: MDA-MB-435
MDA-N = system: MDA-N
MOLT-4 = system: MOLT-4
Malme-3M = system: Malme-3M
NCI-H23 = system: NCI-H23
NCI-H460 = system: NCI-H460
NCI-H522 = system: NCI-H522
NCI/ADR-RES = system: NCI/ADR-RES
OVCAR-3 = system: OVCAR-3
OVCAR-4 = system: OVCAR-4
OVCAR-5 = system: OVCAR-5
OVCAR-8 = system: OVCAR-8
PC-3 = system: PC-3
RPMI-8226 = system: RPMI-8226
RXF 393 = system: RXF 393
SF-268 = system: SF-268
SF-295 = system: SF-295
SF-539 = system: SF-539
SK-MEL-28 = system: SK-MEL-28
SK-MEL-2 = system: SK-MEL-2
SK-MEL-5 = system: SK-MEL-5
SK-OV-3 = system: SK-OV-3
SN12C = system: SN12C
SNB-19 = system: SNB-19
SR = system: SR
SW-620 = system: SW-620
T47D = system: T47D
TK-10 = system: TK-10
U-251 = system: U-251
UACC-257 = system: UACC-257
UACC-62 = system: UACC-62
UO-31 = system: UO-31
ACHN = system: ACHN
SNB-75 = system: SNB-75

Measured: GI50

COc1ccc(C2(O)c3ccccc3C(=O)N(C)C2(O)c2ccc(OC)cc2)cc1 (centres undefined)
40.4 µM: HCT-15
inactive: 786-0 81.5 µM | A498 73.1 µM | A549 57.8 µM | BT-549 34.3 µM | CAKI-1 57.1 µM | CCRF-CEM 51.8 µM | COLO 205 22.6 µM | DU-145 > 100 µM | EKVX 86.7 µM | HCC 2998 49.3 µM | HCT-116 37.8 µM | HL-60 32.6 µM | HOP-62 70.8 µM | HOP-92 36.3 µM | HT-29 28.5 µM | IGROV-1 28.6 µM | K562 55.8 µM | KM12 16.4 µM | LOX IMVI 30.1 µM | M14 53.3 µM | MCF7 54.5 µM | MDA-MB-231 > 100 µM | MDA-MB-435 17.3 µM | MDA-N 17.7 µM | MOLT-4 24.7 µM | Malme-3M 45.9 µM | NCI-H23 > 100 µM | NCI-H460 35.2 µM | NCI-H522 16.1 µM | NCI/ADR-RES 24 µM | OVCAR-3 57 µM | OVCAR-4 25.2 µM | OVCAR-5 > 100 µM | OVCAR-8 81.7 µM | PC-3 33.9 µM | RPMI-8226 > 100 µM | RXF 393 > 100 µM | SF-268 28.7 µM | SF-295 32.9 µM | SF-539 > 100 µM | SK-MEL-28 25.6 µM | SK-MEL-2 43.4 µM | SK-MEL-5 99.1 µM | SK-OV-3 > 100 µM | SN12C > 100 µM | SNB-19 > 100 µM | SR 36.3 µM | SW-620 34.2 µM | T47D 52.4 µM | TK-10 59.4 µM | U-251 52.7 µM | UACC-257 61.9 µM | UACC-62 48.1 µM | UO-31 50.7 µM
active: Hs-578T 0.396 µM

CCSc1s/c(=N/c2ccc(/N=c3\sc(C)c(SC)s3)cc2)sc1-c1ccc(C)cc1
inactive: 786-0 > 100 µM | A498 > 100 µM | A549 > 100 µM | ACHN > 100 µM | BT-549 > 100 µM | CAKI-1 > 100 µM | CCRF-CEM > 100 µM | COLO 205 > 100 µM | DU-145 > 100 µM | EKVX > 100 µM | HCC 2998 > 100 µM | HCT-116 > 100 µM | HL-60 > 100 µM | HOP-62 > 100 µM | HOP-92 > 100 µM | HT-29 > 100 µM | Hs-578T > 100 µM | IGROV-1 > 100 µM | K562 > 100 µM | KM12 > 100 µM | LOX IMVI > 100 µM | M14 > 100 µM | MCF7 > 100 µM | MDA-MB-231 > 100 µM | MDA-MB-435 > 100 µM | MDA-N > 100 µM | MOLT-4 > 100 µM | Malme-3M > 100 µM | NCI-H23 > 100 µM | NCI-H460 > 100 µM | NCI-H522 > 100 µM | NCI/ADR-RES > 100 µM | OVCAR-3 > 100 µM | OVCAR-4 > 100 µM | OVCAR-5 > 100 µM | OVCAR-8 > 100 µM | PC-3 > 100 µM | RPMI-8226 > 100 µM | RXF 393 > 100 µM | SF-268 > 100 µM | SF-295 > 100 µM | SF-539 > 100 µM | SK-MEL-28 > 100 µM | SK-MEL-2 > 100 µM | SK-MEL-5 > 100 µM | SK-OV-3 > 100 µM | SN12C > 100 µM | SNB-19 > 100 µM | SNB-75 32 µM | SR > 100 µM | SW-620 > 100 µM | T47D > 100 µM | TK-10 > 100 µM | U-251 > 100 µM | UACC-257 > 100 µM | UACC-62 > 100 µM | UO-31 > 100 µM
> 100 µM: HCT-15
